From patent US6358885B1, “Substituted phenylheterocyclic herbicides” (Mississippi State University, priority 1992, dated 2002)

Columns and labels:
corn = assay: Test C preemergence/postemergence greenhouse plant response rating 0 to 100; format: in vivo, Zea mays; settings: POSTEMERGENCE; for Plant response rating, Corn: 0 to 100 scale
How it was run: (§1)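 Compounds in non-phytotoxic solvent went onto sandy loam before emergence (seeded one day earlier) or onto plants at the one-to-four leaf stage. Duck salad was treated via flood water (~2.5 cm, maintained) over silt loam.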

sugar beet = assay: as above; format: in vivo, Beta vulgaris; settings: POSTEMERGENCE; for Plant response rating, Sugar beet: 0 to 100 scale
How it was run: as §1

velvetleaf = assay: as above; format: in vivo, Abutilon theophrasti; settings: POSTEMERGENCE; for Plant response rating, Velvetleaf: 0 to 100 scale
How it was run: as §1

chickweed = assay: as above; format: in vivo, Stellaria media; settings: POSTEMERGENCE; for Plant response rating, Chickweed: 0 to 100 scale
How it was run: as §1

purple nutsedge = assay: Test B preemergence/postemergence greenhouse plant response rating 0 to 10; format: in vivo, Cyperus rotundus; settings: 0 to 10 scale
How it was run: (§2)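 Planted seeds are treated preemergence with compound dissolved in a non-phytotoxic solvent, while postemergence applications go onto plants of two to eighteen cm. Plants stay in the greenhouse twelve to sixteen days and are then rated visually relative to controls.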

cocklebur = assay: as above; format: in vivo, Xanthium pensylvanicum; settings: 0 to 10 scale
How it was run: as §2

pigweed = assay: Test C preemergence/postemergence greenhouse plant response rating 0 to 100; format: in vivo, Amaranthusretroflexus; settings: POSTEMERGENCE; for Plant response rating Pigweed: 0 to 100 scale
How it was run: as §1

soybean = assay: Test B preemergence/postemergence greenhouse plant response rating 0 to 10; format: in vivo, Glycine max; settings: 0 to 10 scale
How it was run: as §2

rice [1] = assay: as above; format: in vivo, Oryza sativa; settings: 0 to 10 scale
How it was run: as §2

blackgrass = assay: Test C preemergence/postemergence greenhouse plant response rating 0 to 100; format: in vivo, Alopecurus myosuroides; settings: POSTEMERGENCE; for Plant response rating, Blackgrass: 0 to 100 scale
How it was run: as §1

umbrella sedge = assay: Test C flood test plant response rating 0 to 100; format: in vivo, Cyperus difformis; settings: for Plant response rating (0 to 100), Umbrella sedge: under POSTEMERGENCE head (flood test species); for Plant response rating Umbrella sedge: flood test species listed under POSTEMERGENCE, 0 to 100 scale
How it was run: (§3)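 Compounds in non-phytotoxic solvent applied preemergence to sandy loam one day after planting, postemergence at the 1–4 leaf stage, or to ~2.5 cm floodwater over silt loam.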

duck salad = assay: Test C flood test plant response rating 0 to 100; format: in vivo, Heteranthera limosa; settings: for Plant response rating (0 to 100), Duck salad: under POSTEMERGENCE head (flood test species); for Plant response rating Duck salad: flood test species listed under POSTEMERGENCE, 0 to 100 scale
How it was run: as §1

wild buckwheat = assay: Test B preemergence/postemergence greenhouse plant response rating 0 to 10; format: in vivo, Polygonum convolvulus; settings: 0 to 10 scale
How it was run: as §2

rice [2] = assay: Test C flood test plant response rating 0 to 100; format: in vivo, Oryza sativa; settings: for Plant response rating (0 to 100), Rice Japonica: under POSTEMERGENCE head (flood test species); for Plant response rating Rice Japonica: flood test species listed under POSTEMERGENCE, 0 to 100 scale
How it was run: as §3

giant foxtail = assay: Test C preemergence/postemergence greenhouse plant response rating 0 to 100; format: in vivo, Setaria faberii; settings: POSTEMERGENCE; for Plant response rating, Giant foxtail: 0 to 100 scale
How it was run: as §1

cotton = assay: as above; format: in vivo, Gossypium hirsutum; settings: POSTEMERGENCE; for Plant response rating, Cotton: 0 to 100 scale
How it was run: as §1

bedstraw = assay: as above; format: in vivo, Galium aparine; settings: POSTEMERGENCE; for Plant response rating, Bedstraw: 0 to 100 scale
How it was run: as §1

Compound: C#CC(C)Oc1cc(-c2nn3c(c2Cl)CCCC3)c(F)cc1Cl (centres unmarked) [Compound 36]
- Plant response rating, Corn (corn; 62 g/ha): 50
- Plant response rating, Corn (corn; 125 g/ha): 60
- Plant response rating (0 to 100), Corn (corn; Rate 16 g/ha): 30
- Plant response rating (0 to 100), Corn (corn; Rate 31 g/ha): 40
- Plant response rating, Sugar beet (sugar beet; 62 g/ha): 100
- Plant response rating, Sugar beet (sugar beet; 125 g/ha): 100
- Plant response rating (0 to 100), Sugar beet (sugar beet; Rate 16 g/ha): 95
- Plant response rating (0 to 100), Sugar beet (sugar beet; Rate 31 g/ha): 100
- Plant response rating, Velvetleaf (velvetleaf; 62 g/ha): 100
- Plant response rating, Velvetleaf (velvetleaf; 125 g/ha): 100
- Plant response rating (0 to 100), Velvetleaf (velvetleaf; Rate 16 g/ha): 100
- Plant response rating (0 to 100), Velvetleaf (velvetleaf; Rate 31 g/ha): 100
- Plant response rating, Chickweed (chickweed; 62 g/ha): 80
- Plant response rating, Chickweed (chickweed; 125 g/ha): 100
- Plant response rating (0 to 100), Chickweed (chickweed; Rate 16 g/ha): 70
- Plant response rating (0 to 100), Chickweed (chickweed; Rate 31 g/ha): 80
- Plant response rating, Nutsedge (purple nutsedge; POSTEMERGENCE, Rate 50 g/ha): 4
- Plant response rating, Nutsedge (purple nutsedge; PREEMERGENCE, Rate 50 g/ha): 0
- Plant response rating, Nutsedge (purple nutsedge; Rate 200 g/ha, POSTEMERGENCE): 5
- Plant response rating, Nutsedge (purple nutsedge; Rate 200 g/ha, PREEMERGENCE): 2
- Plant response rating, Cocklebur (cocklebur; POSTEMERGENCE, Rate 50 g/ha): 9
- Plant response rating, Cocklebur (cocklebur; POSTEMERGENCE, Rate 200 g/ha): 10
- Plant response rating, Cocklebur (cocklebur; PREEMERGENCE, Rate 50 g/ha): 0
- Plant response rating, Cocklebur (cocklebur; Rate 200 g/ha, PREEMERGENCE): 2
- Plant response rating Pigweed (pigweed; 62 g/ha): 100
- Plant response rating Pigweed (pigweed; 125 g/ha): 100
- Plant response rating (0 to 100), Pigweed (pigweed; Rate 16 g/ha): 100
- Plant response rating (0 to 100), Pigweed (pigweed; Rate 31 g/ha): 100
- Plant response rating, Soybean (soybean; POSTEMERGENCE, Rate 50 g/ha): 9
- Plant response rating, Soybean (soybean; PREEMERGENCE, Rate 50 g/ha): 0
- Plant response rating, Soybean (soybean; Rate 200 g/ha, POSTEMERGENCE): 9
- Plant response rating, Soybean (soybean; Rate 200 g/ha, PREEMERGENCE): 2
- Plant response rating, Rice (rice [1]; POSTEMERGENCE, Rate 50 g/ha): 6
- Plant response rating, Rice (rice [1]; PREEMERGENCE, Rate 50 g/ha): 0
- Plant response rating, Rice (rice [1]; Rate 200 g/ha, POSTEMERGENCE): 6
- Plant response rating, Rice (rice [1]; Rate 200 g/ha, PREEMERGENCE): 4
- Plant response rating, Blackgrass (blackgrass; 62 g/ha): 50
- Plant response rating, Blackgrass (blackgrass; 125 g/ha): 70
- Plant response rating (0 to 100), Blackgrass (blackgrass; Rate 16 g/ha): 30
- Plant response rating (0 to 100), Blackgrass (blackgrass; Rate 31 g/ha): 40
- Plant response rating (0 to 100), Umbrella sedge (umbrella sedge; Rate 16 g/ha): 0
- Plant response rating (0 to 100), Umbrella sedge (umbrella sedge; Rate 31 g/ha): 20
- Plant response rating Umbrella sedge (umbrella sedge; 62 g/ha): 70
- Plant response rating Umbrella sedge (umbrella sedge; 125 g/ha): 80
- Plant response rating (0 to 100), Duck salad (duck salad; Rate 16 g/ha): 0
- Plant response rating (0 to 100), Duck salad (duck salad; Rate 31 g/ha): 0
- Plant response rating Duck salad (duck salad; 62 g/ha): 30
- Plant response rating Duck salad (duck salad; 125 g/ha): 50
- Plant response rating, Wild buckwheat (wild buckwheat; POSTEMERGENCE, Rate 50 g/ha): 10
- Plant response rating, Wild buckwheat (wild buckwheat; PREEMERGENCE, Rate 50 g/ha): 10
- Plant response rating, Wild buckwheat (wild buckwheat; Rate 200 g/ha, POSTEMERGENCE): 10
- Plant response rating, Wild buckwheat (wild buckwheat; Rate 200 g/ha, PREEMERGENCE): 10
- Plant response rating (0 to 100), Rice Japonica (rice [2]; Rate 16 g/ha): 20
- Plant response rating (0 to 100), Rice Japonica (rice [2]; Rate 31 g/ha): 35
- Plant response rating Rice Japonica (rice [2]; 62 g/ha): 40
- Plant response rating Rice Japonica (rice [2]; 125 g/ha): 50
- Plant response rating, Giant foxtail (giant foxtail; 62 g/ha): 75
- Plant response rating, Giant foxtail (giant foxtail; 125 g/ha): 85
- Plant response rating (0 to 100), Giant foxtail (giant foxtail; Rate 16 g/ha): 50
- Plant response rating (0 to 100), Giant foxtail (giant foxtail; Rate 31 g/ha): 60
- Plant response rating, Cotton (cotton; 62 g/ha): 100
- Plant response rating, Cotton (cotton; 125 g/ha): 100
- Plant response rating (0 to 100), Cotton (cotton; Rate 16 g/ha): 100
- Plant response rating (0 to 100), Cotton (cotton; Rate 31 g/ha): 100
- Plant response rating, Bedstraw (bedstraw; 62 g/ha): 100
- Plant response rating, Bedstraw (bedstraw; 125 g/ha): 100
- Plant response rating (0 to 100), Bedstraw (bedstraw; Rate 16 g/ha): 90
- Plant response rating (0 to 100), Bedstraw (bedstraw; Rate 31 g/ha): 100
